Laboratory results from ChEMBL document CHEMBL3885881, “DrugMatrix”.

Species on record: Rattus norvegicus
Assay: DrugMatrix - Regimen: Daily Repeat
Format: toxicity, organism-based, Sprague-Dawley
Design: regimen Daily Repeat, gender Male, age 6-8 weeks
Settings: in vivo, po, route oral GAVAGE, […]; for ABSOLUTE BASOPHIL / ABSOLUTE EOSINOPHIL / ABSOLUTE LYMPHOCYTE / ABSOLUTE MONOCYTE / ABSOLUTE SEGMENTED NEUTROPHIL / BASOPHIL / EOSINOPHIL / ERYTHROCYTE COUNT / HEMATOCRIT / HEMOGLOBIN / LEUKOCYTE COUNT / LYMPHOCYTE / MEAN CORPUSCULAR HEMOGLOBIN / MEAN CORPUSCULAR HEMOGLOBIN CONCENTRATION / MEAN CORPUSCULAR VOLUME / MONOCYTE / NEUTROPHIL / NUCLEATED RED BLOOD CELLS / PLATELET COUNT: tissue Blood; for ALANINE AMINOTRANSFERASE / ALBUMIN / ALKALINE PHOSPHATASE / ASPARTATE AMINOTRANSFERASE / BLOOD UREA NITROGEN / CARBON DIOXIDE / CHLORIDE / CHOLESTEROL / CREATINE PHOSPHOKINASE / CREATININE / GLUCOSE / LACTATE DEHYDROGENASE / LIPASE / PHOSPHORUS / POTASSIUM / SODIUM / TOTAL BILIRUBIN / TOTAL PROTEIN / URIC ACID: tissue Plasma
[1] = 100 mg/kg, 120 h, dose level Low, time 5 day
[2] = 750 mg/kg, 72 h, dose level High, time 3 day
[3] = 750 mg/kg, 120 h, dose level High, time 5 day

CCn1cc(C(=O)O)c(=O)c2cc(F)c(N3CCNCC3)nc21 [ENOXACIN]
ABSOLUTE BASOPHIL [1]: 0 CELLS/uL | ABSOLUTE EOSINOPHIL [1]: 262.67 CELLS/uL | ABSOLUTE LYMPHOCYTE [1]: 12714 CELLS/uL | ABSOLUTE MONOCYTE [1]: 457 CELLS/uL | ABSOLUTE SEGMENTED NEUTROPHIL [1]: 1799.67 CELLS/uL | BASOPHIL [1]: 0% | EOSINOPHIL [1]: 1.33% | ERYTHROCYTE COUNT [1]: 5.43 x10E6/uL | HEMATOCRIT [1]: 34.07% | HEMOGLOBIN [1]: 13.27 G/DL | LEUKOCYTE COUNT [1]: 15.23 x10E3/uL | LYMPHOCYTE [1]: 83.33% | MEAN CORPUSCULAR HEMOGLOBIN [1]: 24.4 pg | MEAN CORPUSCULAR HEMOGLOBIN CONCENTRATION [1]: 38.93 G/DL | MEAN CORPUSCULAR VOLUME [1]: 62.67 fL | MONOCYTE [1]: 3% | NEUTROPHIL [1]: 12.33% | NUCLEATED RED BLOOD CELLS [1]: 0 /100WBC | PLATELET COUNT [1]: 958 x10E3/uL | ALANINE AMINOTRANSFERASE [1]: 51.33 u/L | ALBUMIN [1]: 4.1 G/DL | ALKALINE PHOSPHATASE [1]: 295.33 u/L | ASPARTATE AMINOTRANSFERASE [1]: 76.33 u/L | BLOOD UREA NITROGEN [1]: 14.33 mg/dL | CARBON DIOXIDE [1]: 23 mmol/L | CHLORIDE [1]: 101 MEQ/L | CHOLESTEROL [1]: 78.33 mg/dL | CREATINE PHOSPHOKINASE [1]: 454 u/L | CREATININE [1]: 0.19 mg/dL | GLUCOSE [1]: 186.67 mg/dL | LACTATE DEHYDROGENASE [1]: 187 u/L | LIPASE [1]: 6.33 u/L | PHOSPHORUS [1]: 12.27 mg/dL | POTASSIUM [1]: 6.41 MEQ/L | SODIUM [1]: 140.57 MEQ/L | TOTAL BILIRUBIN [1]: 0.13 mg/dL | TOTAL PROTEIN [1]: 5.9 G/DL | URIC ACID [1]: 1.2 mg/dL | ABSOLUTE BASOPHIL [2]: 0 CELLS/uL | ABSOLUTE EOSINOPHIL [2]: 0 CELLS/uL | ABSOLUTE LYMPHOCYTE [2]: 12588.33 CELLS/uL | ABSOLUTE MONOCYTE [2]: 501.33 CELLS/uL | ABSOLUTE SEGMENTED NEUTROPHIL [2]: 1877 CELLS/uL | BASOPHIL [2]: 0% | EOSINOPHIL [2]: 0% | ERYTHROCYTE COUNT [2]: 5.55 x10E6/uL | HEMATOCRIT [2]: 34.83% | HEMOGLOBIN [2]: 13.57 G/DL | LEUKOCYTE COUNT [2]: 14.97 x10E3/uL | LYMPHOCYTE [2]: 84.33% | MEAN CORPUSCULAR HEMOGLOBIN [2]: 24.47 pg | MEAN CORPUSCULAR HEMOGLOBIN CONCENTRATION [2]: 38.93 G/DL | MEAN CORPUSCULAR VOLUME [2]: 62.87 fL | MONOCYTE [2]: 3.33% | NEUTROPHIL [2]: 12.33% | NUCLEATED RED BLOOD CELLS [2]: 0 /100WBC | PLATELET COUNT [2]: 1299.33 x10E3/uL | ALANINE AMINOTRANSFERASE [2]: 54 u/L | ALBUMIN [2]: 3.8 G/DL | ALKALINE PHOSPHATASE [2]: 389 u/L | ASPARTATE AMINOTRANSFERASE [2]: 64.33 u/L | BLOOD UREA NITROGEN [2]: 14.67 mg/dL | CARBON DIOXIDE [2]: 24.67 mmol/L | CHLORIDE [2]: 101.67 MEQ/L | CHOLESTEROL [2]: 66.33 mg/dL | CREATINE PHOSPHOKINASE [2]: 317.67 u/L | CREATININE [2]: 0.12 mg/dL | GLUCOSE [2]: 181.33 mg/dL | LACTATE DEHYDROGENASE [2]: 80.33 u/L | LIPASE [2]: 10 u/L | PHOSPHORUS [2]: 9.8 mg/dL | POTASSIUM [2]: 5.81 MEQ/L | SODIUM [2]: 140.9 MEQ/L | TOTAL BILIRUBIN [2]: 0.1 mg/dL | TOTAL PROTEIN [2]: 5.63 G/DL | URIC ACID [2]: 1.27 mg/dL | ABSOLUTE BASOPHIL [3]: 0 CELLS/uL | ABSOLUTE EOSINOPHIL [3]: 145 CELLS/uL | ABSOLUTE LYMPHOCYTE [3]: 12773 CELLS/uL | ABSOLUTE MONOCYTE [3]: 466 CELLS/uL | ABSOLUTE SEGMENTED NEUTROPHIL [3]: 1749.33 CELLS/uL | BASOPHIL [3]: 0% | EOSINOPHIL [3]: 1% | ERYTHROCYTE COUNT [3]: 5.4 x10E6/uL | HEMATOCRIT [3]: 33.53% | HEMOGLOBIN [3]: 13.27 G/DL | LEUKOCYTE COUNT [3]: 15.13 x10E3/uL | LYMPHOCYTE [3]: 84.33% | MEAN CORPUSCULAR HEMOGLOBIN [3]: 24.57 pg | MEAN CORPUSCULAR HEMOGLOBIN CONCENTRATION [3]: 39.6 G/DL | MEAN CORPUSCULAR VOLUME [3]: 62.07 fL | MONOCYTE [3]: 3% | NEUTROPHIL [3]: 11.67% | NUCLEATED RED BLOOD CELLS [3]: 0 /100WBC | PLATELET COUNT [3]: 1091.67 x10E3/uL | ALANINE AMINOTRANSFERASE [3]: 57.67 u/L | ALBUMIN [3]: 4.03 G/DL | ALKALINE PHOSPHATASE [3]: 396.33 u/L | ASPARTATE AMINOTRANSFERASE [3]: 69.67 u/L | BLOOD UREA NITROGEN [3]: 12.67 mg/dL | CARBON DIOXIDE [3]: 24 mmol/L | CHLORIDE [3]: 101.33 MEQ/L | CHOLESTEROL [3]: 61.33 mg/dL | CREATINE PHOSPHOKINASE [3]: 482.67 u/L | CREATININE [3]: 0.16 mg/dL | GLUCOSE [3]: 207 mg/dL | LACTATE DEHYDROGENASE [3]: 141 u/L | LIPASE [3]: 6.67 u/L | PHOSPHORUS [3]: 13.2 mg/dL | POTASSIUM [3]: 5.17 MEQ/L | SODIUM [3]: 141.5 MEQ/L | TOTAL BILIRUBIN [3]: 0.13 mg/dL | TOTAL PROTEIN [3]: 5.8 G/DL | URIC ACID [3]: 1.5 mg/dL
